# Experimental data from EP4332093A1, “SALT CONTAINING PIPERAZINE POLYCYCLIC DERIVATIVE, CRYSTAL FORM THEREOF, PREPARATION METHOD THEREFOR, AND USE THEREOF” (Shanghai Hansoh Biomedical Co., Ltd., priority 2021, dated 2022).
# Counter-ions that a name gives are not always drawn.
# What was measured:
# Assay type in all cases: physicochemical
# [1] = Grinding crystal transformation test; settings: ground in a mortar for 5 min
# [2] = Hygroscopicity experiment of crystal form A of hydrochloride
# [3] = Salt form quantification (HPLC-ELSD); settings: Conclusion from Cl- content compared with theoretical values
# Protocol: The number of acids binding in the salt form was quantified by HPLC-ELSD test. An appropriate amount of NaCl was weighed, and a series of linear solutions of different concentrations with the diluent acetonitrile-water (50:50) was prepared. […] The above linear solution and hydrochloride samples solution was taken to filter. [table]
# [4] = Pressure crystal transformation test; settings: tablet press at maximum pressure
# Source text: The tablet press was adjusted to the maximum pressure. It was pressed into a tablet and then was subjected to PXRD characterization.
# [5] = Solid stability experiment of crystal forms of salt (5 and 10 days); settings: all conditions: light 5000lx, 60°C, 92.5% RH, 50°C 75% RH; 5 and 10 days
# Protocol: About 1 mg of different crystal forms of salt were taken and placed under the conditions of light 5000lx, high temperature 60°C, high humidity 92.5%RH, high temperature and high humidity 50°C 75%RH for 5 days and 10 days. The salt content was determined by HPLC and external standard method, and the change of relevant substances was calculated by chromatographic peak area normalization method.
# [6] = Crystal form stability study of hydrochloride for 30 days; settings: 30 days; light 5000lux, 60°C, 92.5% RH, 40°C & 75% RH
# Protocol: The diluent 80% methanol solution was added to prepare a solution containing about 0.5 mg/mL hydrochloride. The mixture was sonicated for 30min to produce a clear solution. 1mL of the soluion was filtered and measured by HPLC. See "2.3.4" for the HPLC analysis method. The content of related substances was calculated according to the peak area normalization method, and the results are shown in Table 32 below. Table 32 HPLC data of hydrochloride in stability experimental conditions for 30 days
# [7] = Thermodynamic stability experiment of crystal form (pulping in solvents, XRPD); settings: for Results after pulping (crystal form by XRPD): pulped for 1 week at room temperature and 50°C
# Protocol: An organic solvent with a certain solubility was selected. […] The supernatant was discarded, and the solid was dried in vacuum (-0.1 Mpa) overnight at 50°C. The XRPD of the solid was determined and compared with XRPD of raw compound salt.
compound,measurement,setting,value
O=C(N[C@H]1C[C@H](CCN2CCN(c3cccc(Cl)c3Cl)CC2)C1)c1ncco1 [crystal form A of hydrochloride],crystal transformation before and after grinding (PXRD),[1],didn't undergo crystal transformation
same,hygroscopicity,[2],slightly hygroscopic
same,XRPD pattern after humidification and dehumidification,"[2]; 2 cycles, 0 to 95% relative humidity",does not change
same,hygroscopic weight gain,[2]; RH 80%,0.509%
same,The number of hydrochloric acid binding,[3],The number of hydrochloric acid binding in crystal form A of hydrochloride is 1
same,crystal transformation before and after pressure (PXRD),[4],didn't undergo crystal transformation
same,crystal form stability (impurities),[5],stable under all conditions
same,crystal form change (PXRD),[6],does not undergo crystal form change
same,impurities (HPLC),[6],do not increase significantly
same,Results after pulping (crystal form by XRPD),"[7]; 1,4-Dioxane",Crystal form A
same,crystal form after being pulped by different solvents (XRPD),[7]; 1 week at room temperature and 50°C,the crystal form does not change
same,Results after pulping (crystal form by XRPD),[7]; 2-Butanone,Crystal form A
same,Results after pulping (crystal form by XRPD),[7]; 2-Methyl-tetrahydrofuran,Crystal form A
same,Results after pulping (crystal form by XRPD),[7]; Acetone,Crystal form A
same,Results after pulping (crystal form by XRPD),[7]; Acetonitrile,Crystal form A
same,Results after pulping (crystal form by XRPD),[7]; Dichloromethane,Crystal form A
same,Results after pulping (crystal form by XRPD),[7]; Ethanol,Crystal form A
same,Results after pulping (crystal form by XRPD),[7]; Ethyl acetate,Crystal form A
same,Results after pulping (crystal form by XRPD),[7]; Ethyl formate,Crystal form A
same,Results after pulping (crystal form by XRPD),[7]; Isopropanol,Crystal form A
same,Results after pulping (crystal form by XRPD),[7]; Methanol,Crystal form A
same,Results after pulping (crystal form by XRPD),[7]; Methyl tert-butyl ether,Crystal form A
same,Results after pulping (crystal form by XRPD),[7]; Tetrahydrofuran,Crystal form A
same,Results after pulping (crystal form by XRPD),[7]; Toluene,Crystal form A
same,Results after pulping (crystal form by XRPD),[7]; n-Heptane,Crystal form A
